Measured values: patent US4885239A, “Rapid differentiation of bacteria using polyether antibiotics” (Eastman Kodak Company, priority 1986, dated 1989)

Experiments:
[1] = test system: E. coli (gram -); test: inhibition of the reduction of RIND XXXV in dry analytical element (Example 6), E. coli; assay type: cell-based, Escherichia coli (ATCC 25922); conditions: calcium chloride, 30 minutes, 37° C.
Method: (§1) gram-negative bacteria Enterobacter cloacae (ATCC 23355), Escherichia coli (ATCC 25922), Proteus vulgaris (ATCC 13315), Klebsiella pneumoniae (ATCC 13883) and Pseudomonas aeruginosa (ATCC 27853), and gram-positive bacteria Staphylococcus aureus (ATCC 25923) and Streptococcus pyogenes (ATCC 19615), and brain heart infusion (BHI) broth from Difco Laboratories (Detroit, Mich.),
(§2) Bacterial suspensions were prepared by growing the cells in BHI to stationary phase overnight at 37° C. P. aeruginosa was grown with agitation. […]
Optical density readings (OD) were made at 635 nm at 0 minutes and after incubation at 37° C. for 30 minutes for all solutions, and the change (ΔOD) was determined. […] The corrected percent inhibition was calculated by dividing the difference between ΔOD obtained from a Control test without antibiotic and the ΔOD of the test, by the ΔOD of the Control without antibiotic. All readings were corrected by subtracting readings of the appropriate background control. […]
The relative fluorescence (excitation 540 nm, emission 620 nm) was measured using a standard spectrophotometer, and the change in relative fluorescence was determined after 30 minutes at 37° C. […]

[2] = test system: viable gram-positive and gram-negative bacteria; test: differentiation of viable gram-positive and gram-negative bacteria (outcome in words); assay type: cell-based; conditions: RIND VII; calimycin 10^-3 molar
Method: as §1
(§3) Bacterial suspensions were prepared by growing the cells in BHI to stationary phase overnight at 37° C. P. aeruginosa was grown with agitation. About 40 ml of overnight cultures were centrifuged, decanted and washed once with 0.05 molar potassium phosphate buffer or 0.05 molar N-2-hydroxyethylpiperazine-N'-2-ethanesulfonic acid (HEPES) buffer, pH 7.8, and resuspended in buffer.
TERGITOL 7 anionic surfactant was used to differentiate viable bacteria according to the prior art method. Various concentrations of TERGITOL 7 surfactant were mixed with a 10% glucose solution (50 μl), 3-(4,5-dimethyl-2-thiazolyl)-2,5-diphenyl-2N-tetrazolium bromide (MTT) in methanol (25 μl at 5 mg/ml) or a RIND VII dispersion (1.5 ml) and phenazine methosulfate ETA (25 μl at 3 mg/ml methanol). The volume of each test solution was brought to 3 ml with potassium phosphate buffer. A cell suspension (100 μl at about 10^8 cells/ml) was then added. The solutions were incubated at 37° C. for 15 and 30 minutes in the presence of either E. coli, a gram (-) bacterium, or S. aureus, a gram (+) bacterium. The amount of dye formed was then determined visually and graded as follows: 0 indicates no dye formation, +/- indicates faint dye formation, 1+ indicates light dye formation, 2+ indicates moderate dye formation, 3+ indicates strong dye formation, and 4+ indicates very strong dye formation.
(§4) Calimycin, a polyether antibiotic, was similarly used with RIND VII in the differentiation of bacteria. Assays were performed as described above, except that 25 μl of 1 molar calcium chloride solution was added to each test solution and the P. aeruginosa response was measured in the presence of 10% yeast extract as the carbon source instead of glucose. The final concentration of calimycin in each test was 10^-3 molar.
The test solutions were prepared by adding the following, in order: 1.2 ml HEPES, 50 μl glucose solution, 1.5 ml RIND VII dispersion, 100 μl antibiotic solution, 100 μl cell suspension and 25 μl ETA solution. Cell control solutions contained all reagents except antibiotics. Background Controls consisted of both buffer and solution controls. The buffer control contained all reagents except antibiotics and cells. The solution control contained all reagents except cells.
Optical density readings (OD) were made at 635 nm at 0 minutes and after incubation at 37° C. for 30 minutes for all solutions, and the change (ΔOD) was determined. Table V below lists the results expressed as corrected percent inhibition of the reduction of RIND VII. The corrected percent inhibition was calculated by dividing the difference between ΔOD obtained from a Control test without antibiotic and the ΔOD of the test, by the ΔOD of the Control without antibiotic. All readings were corrected by subtracting readings of the appropriate background control.
Relative fluorescence was measured using a standard spectrophotometer modified to read at excitation of 540 nm and emission of 620 nm. The change (Δ) in relative fluorescence was determined after 30 minutes at 37° C. for several concentration levels of antibiotic.
Optical density measurements were obtained at 540 nm using a standard spectrophotometer and the change in optical density (ΔOD) was determined after 30 minutes at 37° C. The resulting data are shown in Table VII below for several concentrations of antibiotic. It is clear from the data that the composition of this example was useful for differentiating bacteria. […]

[3] = test system: S. faecalis; test: dye formation from RIND VII in presence of calimycin, S. faecalis; assay type: cell-based, Streptococcus faecalis (clinical urine isolate); parameters: key: 0: no dye formation; +/-: faint dye formation; 1+: light dye formation; 2+: moderate dye formation; 3+: strong dye formation; 4+: very strong dye formation; conditions: calimycin 10^-3 molar, calcium chloride
Method: Streptococcus faecalis was isolated from a clinical urine specimen obtained from a local hospital,
as §3
A dispersion containing a RIND compound was prepared by dissolving RIND VII from Table II above in N,N-dimethylformamide (DMF) at 16 mg compound per ml of solvent. […]
(§5) TERGITOL 7 anionic surfactant was used to differentiate viable bacteria according to the prior art method. […] The amount of dye formed was then determined visually and graded as follows: 0 indicates no dye formation, +/- indicates faint dye formation, 1+ indicates light dye formation, 2+ indicates moderate dye formation, 3+ indicates strong dye formation, and 4+ indicates very strong dye formation.
as §4, with “The final concentration of calimycin in each test was 10^-3 molar.” left out

[4] = test system: S. aureus (gram +); test: inhibition of the reduction of RIND XXXV in dry analytical element (Example 6), S. aureus; assay type: cell-based, Staphylococcus aureus (ATCC 25923); conditions: calcium chloride, 30 minutes, 37° C.
[5] = test system: P. aeruginosa; test: dye formation from RIND VII in presence of calimycin, P. aeruginosa; assay type: cell-based, Pseudomonas aeruginosa (ATCC 27853); parameters: key: 0: no dye formation; +/-: faint dye formation; 1+: light dye formation; 2+: moderate dye formation; 3+: strong dye formation; 4+: very strong dye formation; conditions: calimycin 10^-3 molar, calcium chloride, 10% yeast extract instead of glucose
Method: as §1, §2, §5
as §4, with “The final concentration of calimycin in each test was 10^-3 molar.” left out

`CNc1ccc2oc(C[C@H]3O[C@@]4(CC[C@H]3C)O[C@H]([C@H](C)C(=O)c3ccc[nH]3)[C@H](C)C[C@H]4C)nc2c1C(=O)O` [calimycin, Calimycin] was tested, and the “Corrected Percent Inhibition” value [1] was 11.5%, the “inhibition of the reduction of the reducible compounds by viable gram-positive bacteria” value [2] was “selectively and substantially inhibits the reduction of the reducible compounds” and the “reductive capability of the viable gram-negative bacteria” value [2] was “not inhibited”. The dye formation ([3]; 15 Minutes) was “+/-”, the dye formation ([3]; 30 Minutes) was “+/-” and the “Corrected Percent Inhibition” value [4] was 70%. For the same compound, the dye formation ([5]; 15 Minutes) was 2+ and the dye formation ([5]; 30 Minutes) was 4+.
